Measured values as given in patent US7256187B2, “Rifamycin C-11 oxime derivatives effective against drug-resistant microbes” (Cumbre Pharmaceuticals Inc., priority 2004, dated 2007).
Values after ≈ are worked out from the molar mass of the structure shown.

How the values were obtained:
Format in all cases: cell-based
[1] = test system: Staphylococcus aureus ATCC29213; test: MIC, microbroth dilution; settings: Staphylococcus aureus ATCC29213, rifS; read-out: Antimicrobial activity (MIC)
[2] = test system: Staphylococcus aureus ATCC29213 rpoB^D417Y; test: microbe, parasite or virus in culture; settings: Staphylococcus aureus ATCC29213 rpoB^D417Y, rifR; read-out: Antimicrobial activity (MIC)
Experimental: (§1) Representative compounds were assayed for antimicrobial activity as follows: Minimum Inhibitory Concentrations (“MICs”) were determined by the microbroth dilution method as per NCCLS guidelines (National Committee for Clinical Laboratory Standards. 2000. Methods for dilution antimicrobial susceptibility tests for bacteria that grow aerobically, 5th ed. M7-A5. National Committee for Clinical Laboratory Standards, Wayne, Pa.), except that all growth incubations were conducted at 37° C. Bacterial cultures were tested in the following bacteriological media: S. aureus, S. epidermidis, and E. coli in Cation-Adjusted Mueller-Hinton Broth, S. pneumoniae in THY Broth supplemented with 1 mg/mL catalase under 5% CO2 atmosphere, S. pyogenes in THY Broth, E. faecalis in BHI Broth, H. influenzae in BHI Broth supplemented with 0.75 μL of 1 mg/mL NAD and 150 μL of 1 mg/ml hematin per 5 mL, and M. smegmatis in Middlebrook Broth plus ADC Enrichment.
(§2) S. aureus ATCC 29213 RpoB^H418Y is a rifampin-resistant strain with a mutation in the RpoB gene of RNA polymerase. […] S. aureus EN1252a gyrA^S84L grlA^S80F is a quinolone-resistant strain due to double gene mutations of DNA gyrase and topoisomerase IV.

[3] = test system: Staphylococcus aureus ATCC29213 rpoB^H418Y; test: microbe, parasite or virus in culture; settings: Staphylococcus aureus ATCC29213 rpoB^H418Y, rifR; read-out: Antimicrobial activity (MIC)
Experimental: as §1, §2

[4] = test system: Staphylococcus aureus EN1252a gyrA^S84L grlA^S80F; test: microbe, parasite or virus in culture; settings: Staphylococcus aureus EN1252a gyrA^S84L grlA^S80F, cipR; read-out: Antimicrobial activity (MIC)
Experimental: as §1, §2

[5] = test system: Staphylococcus epidermidis ATCC12228; test: MIC, microbroth dilution; settings: Staphylococcus epidermidis ATCC12228, rifS; read-out: Antimicrobial activity (MIC)
[6] = test system: Streptococcus pneumoniae ATCC6303; test: MIC, microbroth dilution; settings: Streptococcus pneumoniae ATCC6303, rifS; read-out: Antimicrobial activity (MIC)
[7] = test system: Streptococcus pyogenes ATCC19615; test: MIC, microbroth dilution; settings: Streptococcus pyogenes ATCC19615, rifS; read-out: Antimicrobial activity (MIC)
[8] = test system: Enterococcus faecalis ATCC29212; test: MIC, microbroth dilution; settings: Enterococcus faecalis ATCC29212, rifS; read-out: Antimicrobial activity (MIC)
[9] = test system: Haemophilus influenzae ATCC10211; test: MIC, microbroth dilution; settings: Haemophilus influenzae ATCC10211, rifS; read-out: Antimicrobial activity (MIC)
[10] = test system: Escherichia coli ATCC25922; test: MIC, microbroth dilution; settings: Escherichia coli ATCC25922, rifS; read-out: Antimicrobial activity (MIC)
[11] = test system: Mycobacterium smegmatis ATCC700084; test: MIC, microbroth dilution; settings: Mycolicibacterium smegmatis; Mycobacterium smegmatis ATCC700084, rifS; read-out: Antimicrobial activity (MIC)

COc1c(N2CCN(/N=C/c3c4c(O)c5c(O)c(C)c6c(c5c3O)/C(=N/O)[C@@](C)(O/C=C/[C@H](OC)[C@@H](C)[C@@H](OC(C)=O)[C@H](C)[C@H](O)[C@H](C)[C@@H](O)[C@@H](C)/C=C/C=C(/C)C(=O)N4)O6)C(C)C2)c(F)cc2c(=O)c(C(=O)O)cn(C3CC3)c12 (mixture of isomers) [Example 40, (R/S)-3-[4-(3-Carboxy-1-cyclopropyl-6-fluoro-8-methoxy-4-oxo-1,4-dihydroquinolin-7-yl)-2-methyl-piperazin-1-yl-aminomethylenyl]-11-deoxy-11-hydroxyiminorifamycin SV]
MIC [1]: 0.004 to 0.5 µg/mL (≈ 0.00359 to 0.449 µM)
MIC [2]: 0.25 to 32 µg/mL (≈ 0.225 to 28.7 µM)
MIC [3]: 0.125 to 16 µg/mL (≈ 0.112 to 14.4 µM)
MIC [4]: 0.004 to 0.5 µg/mL (≈ 0.00359 to 0.449 µM)
MIC [5]: 0.0005 to 0.063 µg/mL (≈ 0.000449 to 0.0566 µM)
MIC [6]: 0.0002 to 0.125 µg/mL (≈ 0.00018 to 0.112 µM)
MIC [7]: 0.0005 to 0.063 µg/mL (≈ 0.000449 to 0.0566 µM)
MIC [8]: 2 to 32 µg/mL (≈ 1.8 to 28.7 µM)
MIC [9]: 0.03 to 2 µg/mL (≈ 0.0269 to 1.8 µM)
MIC [10]: 0.125 to 8 µg/mL (≈ 0.112 to 7.19 µM)
MIC [11]: 0.5 to 64 µg/mL (≈ 0.449 to 57.5 µM)

CO[C@H]1/C=C/O[C@@]2(C)Oc3c(C)c(O)c4c(c3/C2=N/O)/C(=N/O)C=C(NC(=O)/C(C)=C\C=C\[C@H](C)[C@H](O)[C@@H](C)[C@@H](O)[C@@H](C)[C@H](OC(C)=O)[C@@H]1C)C4=O [Example 4, 4, 11-Dideoxy-4,11-dihydroxyiminorifamycin S]
MIC [1]: 0.004 to 0.5 µg/mL (≈ 0.00551 to 0.689 µM)
MIC [2]: 0.25 to 32 µg/mL (≈ 0.344 to 44.1 µM)
MIC [3]: 0.125 to 16 µg/mL (≈ 0.172 to 22 µM)
MIC [4]: 0.004 to 0.5 µg/mL (≈ 0.00551 to 0.689 µM)
MIC [5]: 0.0005 to 0.063 µg/mL (≈ 0.000689 to 0.0868 µM)
MIC [6]: 0.0002 to 0.125 µg/mL (≈ 0.000276 to 0.172 µM)
MIC [7]: 0.0005 to 0.063 µg/mL (≈ 0.000689 to 0.0868 µM)
MIC [8]: 2 to 32 µg/mL (≈ 2.76 to 44.1 µM)
MIC [9]: 0.03 to 2 µg/mL (≈ 0.0413 to 2.76 µM)
MIC [10]: 0.125 to 8 µg/mL (≈ 0.172 to 11 µM)
MIC [11]: 0.5 to 64 µg/mL (≈ 0.689 to 88.2 µM)

CO/N=C1/c2c3c(C)c(O)c4c2/C(=N/OC)C=C(NC(=O)/C(C)=C\C=C\[C@H](C)[C@H](O)[C@@H](C)[C@@H](O)[C@@H](C)[C@H](OC(C)=O)[C@H](C)[C@@H](OC)/C=C/O[C@@]1(C)O3)C4=O [Example 5, 4, 11-Dideoxy-4, 11-dimethoxyiminorifamycin S]
MIC [1]: 0.004 to 0.5 µg/mL (≈ 0.00531 to 0.663 µM)
MIC [2]: 0.25 to 32 µg/mL (≈ 0.332 to 42.4 µM)
MIC [3]: 0.125 to 16 µg/mL (≈ 0.166 to 21.2 µM)
MIC [4]: 0.004 to 0.5 µg/mL (≈ 0.00531 to 0.663 µM)
MIC [5]: 0.0005 to 0.063 µg/mL (≈ 0.000663 to 0.0836 µM)
MIC [6]: 0.0002 to 0.125 µg/mL (≈ 0.000265 to 0.166 µM)
MIC [7]: 0.0005 to 0.063 µg/mL (≈ 0.000663 to 0.0836 µM)
MIC [8]: 2 to 32 µg/mL (≈ 2.65 to 42.4 µM)
MIC [9]: 0.03 to 2 µg/mL (≈ 0.0398 to 2.65 µM)
MIC [10]: 0.125 to 8 µg/mL (≈ 0.166 to 10.6 µM)
MIC [11]: 0.5 to 64 µg/mL (≈ 0.663 to 84.9 µM)

CO[C@H]1/C=C/O[C@@]2(C)Oc3c(C)c(O)c4c(c3/C2=N/O)C(=O)C=C(NC(=O)/C(C)=C\C=C\[C@H](C)[C@H](O)[C@@H](C)[C@@H](O)[C@@H](C)[C@H](OC(C)=O)[C@@H]1C)C4=O [Example 7, 11-Deoxy-11-hydroxyiminorifamycin S]
MIC [1]: 0.004 to 0.5 µg/mL (≈ 0.00563 to 0.703 µM)
MIC [2]: 0.25 to 32 µg/mL (≈ 0.352 to 45 µM)
MIC [3]: 0.125 to 16 µg/mL (≈ 0.176 to 22.5 µM)
MIC [4]: 0.004 to 0.5 µg/mL (≈ 0.00563 to 0.703 µM)
MIC [5]: 0.0005 to 0.063 µg/mL (≈ 0.000703 to 0.0886 µM)
MIC [6]: 0.0002 to 0.125 µg/mL (≈ 0.000281 to 0.176 µM)
MIC [7]: 0.0005 to 0.063 µg/mL (≈ 0.000703 to 0.0886 µM)
MIC [8]: 2 to 32 µg/mL (≈ 2.81 to 45 µM)
MIC [9]: 0.03 to 2 µg/mL (≈ 0.0422 to 2.81 µM)
MIC [10]: 0.125 to 8 µg/mL (≈ 0.176 to 11.3 µM)
MIC [11]: 0.5 to 64 µg/mL (≈ 0.703 to 90 µM)

CO[C@H]1/C=C/O[C@@]2(C)Oc3c(C)c(O)c4c(c3/C2=N/OC(=O)c2ccncc2)C(=O)C=C(NC(=O)/C(C)=C\C=C\[C@H](C)[C@H](O)[C@@H](C)[C@@H](O)[C@@H](C)[C@H](OC(C)=O)[C@@H]1C)C4=O [Example 8, 11-Deoxy-11-(4-pyridylcarboxy)iminorifamycin S]
MIC [1]: 0.004 to 0.5 µg/mL (≈ 0.0049 to 0.613 µM)
MIC [2]: 0.25 to 32 µg/mL (≈ 0.306 to 39.2 µM)
MIC [3]: 0.125 to 16 µg/mL (≈ 0.153 to 19.6 µM)
MIC [4]: 0.004 to 0.5 µg/mL (≈ 0.0049 to 0.613 µM)
MIC [5]: 0.0005 to 0.063 µg/mL (≈ 0.000613 to 0.0772 µM)
MIC [6]: 0.0002 to 0.125 µg/mL (≈ 0.000245 to 0.153 µM)
MIC [7]: 0.0005 to 0.063 µg/mL (≈ 0.000613 to 0.0772 µM)
MIC [8]: 2 to 32 µg/mL (≈ 2.45 to 39.2 µM)
MIC [9]: 0.03 to 2 µg/mL (≈ 0.0368 to 2.45 µM)
MIC [10]: 0.125 to 8 µg/mL (≈ 0.153 to 9.81 µM)
MIC [11]: 0.5 to 64 µg/mL (≈ 0.613 to 78.4 µM)

CO[C@H]1/C=C/O[C@@]2(C)Oc3c(C)c(O)c4c(c3/C2=N/OC(C)=O)C(=O)C=C(NC(=O)/C(C)=C\C=C\[C@H](C)[C@H](O)[C@@H](C)[C@@H](O)[C@@H](C)[C@H](OC(C)=O)[C@@H]1C)C4=O [Example 9, 11-Deoxy-11-acetoxyiminorifamycin S]
MIC [1]: 0.004 to 0.5 µg/mL (≈ 0.00531 to 0.664 µM)
MIC [2]: 0.25 to 32 µg/mL (≈ 0.332 to 42.5 µM)
MIC [3]: 0.125 to 16 µg/mL (≈ 0.166 to 21.3 µM)
MIC [4]: 0.004 to 0.5 µg/mL (≈ 0.00531 to 0.664 µM)
MIC [5]: 0.0005 to 0.063 µg/mL (≈ 0.000664 to 0.0837 µM)
MIC [6]: 0.0002 to 0.125 µg/mL (≈ 0.000266 to 0.166 µM)
MIC [7]: 0.0005 to 0.063 µg/mL (≈ 0.000664 to 0.0837 µM)
MIC [8]: 2 to 32 µg/mL (≈ 2.66 to 42.5 µM)
MIC [9]: 0.03 to 2 µg/mL (≈ 0.0399 to 2.66 µM)
MIC [10]: 0.125 to 8 µg/mL (≈ 0.166 to 10.6 µM)
MIC [11]: 0.5 to 64 µg/mL (≈ 0.664 to 85 µM)
